Measurements published in patent US20100105864A1, “PROPHYLACTIC OR THERAPEUTIC AGENT FOR DIARRHEA” (priority 2007, published 2010).
Marks after values point to notes of the source that are not given here.

Assays:
[1] = system: Balb/c mice; assay: Anticancer agent (5-FU)-induced diarrhea model; format: in vivo
Description: To each of Balb/c mice, an anticancer agent was administered to induce diarrhea, and γ-Glu-Val-Gly (hereinafter, referred to as “γEVG”) was studied for its inhibitory effect on diarrhea. To each of 6-week-old Balb/c mice fed with a low protein nutrient diet (4% casein diet) for 1 week, 5-FU (1 mg/animal/day) was intraperitoneally administered for consecutive 3 days. The diarrhea developed around Day 5 after the third administration of the anticancer agent, and the diarrhea appeared in all cases on Day 7. The presence or absence of diarrhea was determined based on the presence or absence of the stool in the tail head area. As the statistical test, a chi-square (χ^2) test for the control group (presence or absence of diarrhea) was employed, and p<0.05 was regarded as significant.
Each administration of 0.01% γEVG was started in free water intake at the same time as the first administration of the anticancer agent, and continued until completion of the experiment.
To each of Balb/c mice, an anticancer agent was administered to induce diarrhea, and a calcium receptor activator (hereinafter, referred to as “CaSR agonist”) was studied for its inhibitory effect on diarrhea. To each of 6-week-old Balb/c mice fed with a low protein nutrient diet (4% casein diet) for 1 week, 5-FU (1 mg/animal/day) was intraperitoneally administered for consecutive 3 days. The diarrhea developed around Day 5 after the third administration of the anticancer agent, and the diarrhea appeared in all cases on Day 7. The presence or absence of diarrhea was determined based on the presence or absence of the stool in the tail head area. As the statistical test, a chi-square (χ^2) test for the control group (presence or absence of diarrhea) was employed, and p<0.05 was regarded as significant.
The administration of the CaSR agonist was started in free water intake at the same time as the administration of the low protein nutrient diet, and continued until completion of the experiment.

[2] = system: rat large intestine loop; assay: Fluid absorption in rat large intestine loop method (PGE2-stimulated); format: in vivo, rats; conditions: injected into loop 30 minutes after PGE2 i.p.; measured after 1 hour
Description: The cecum and large intestine were extirpated from the abdomen of each of male SD (IGS) rats under pentobarbital anesthesia, and the site 5 cm away from the area just under the cecum was ligated to form a large intestine loop Immediately after the loop had been formed, PGE2 (4 μg/ml/kg, SIGMA) was intraperitoneally administered, and after 30 minutes, a medicament, which had been dissolved in 2 ml of Tyrode's solution (NaCl: 136.9 mM, KCl: 2.7 mM, CaCl2.2H2O: 1.8 mM, MgCl2.6H2O: 1.04 mM, NaH2PO4.2H2O: 0.04 mM, NaH2PO4.2H2O: 0.04 mM, glucose: 5.55 mM, NaHCO3: 11.9 mM), was injected into the prepared loop (the medicament solution was adjusted so that the pH would be 6.5 to 7.5). As a control, Tyrode's solution free of any medicament (vehicle) was administered. After 1 hour, the loop weight, the loop weight after solution removal, and the loop area were measured to calculate a solution weight per unit area remaining in the loop.
The remaining solution amount per unit area was calculated with the following equation:
Remaining solution amount per unit area(g/cm^2)=(Loop weight−Loop weight after solution removal)/Loop area.
The fluid absorption was evaluated by calculating an inhibitory rate from the following equation:
Inhibitory rate(%)=100−(Remaining solution amount per unit area under drug administration−Remaining solution amount per unit area in base(average))/(Remaining solution amount per unit area under vehicle administration(average)−Remaining solution amount per unit area in base(average))×100.
(Base=case where no stimulation is given (no treatment with PGE2))

N[C@@H](CCC(=O)N[C@@H](CS)C(=O)NCC(=O)O)C(=O)O [γ-Glu-Cys-Gly]
mice that did not exhibit the diarrhea symptom ([1]; 0.5% administration group, free water intake from start of low protein diet, control all 9/9 with diarrhea): 2 out of 5
Ratio of individuals that developed diarrhea ([1]; 0.5% in free water intake from start of low protein diet, control 9/9, p < 0.05 chi-square): 3/5*
fluid absorption (inhibitory rate from remaining solution amount per unit area) [2]: promoted fluid absorption
